Like-named read-outs stand apart in the source and are kept apart here. Peptide text beside a SMILES is read from it.
B1: Epitope 5 peptide LIIRAEELAQM of ROPN1 and ROPN1B (peptide)
peptide: LIIRAEELAQM
notes: 11-mer found by immunopeptidomics; tested as synthetic peptide
B2: Epitope 1 (MLN) peptide MLNYIEQEV of ROPN1B (peptide)
peptide: MLNYIEQEV
notes: Synthetic peptide (ThinkPeptides/ProImmune)

Key:
CD8+ T cells [1] = assay: peptide:MHC multimer/tetramer staining of enriched T cells (flow cytometry); type: cell-based, human; conditions: Table 4; enriched T cells after enrichment cycles
Procedure: (§1) Enrichment of epitope-specific CD8 T cells was performed according to the protocol described by Butler et al., Clin Cancer Res.;13(6):1857-1867 (2007), doi:10.1158/1078-0432, but included the following amendments. CD8+ T lymphocytes were collected from PBMCs by magnetic-activated cell sorting (MACS) according to the CD8 isolation kit (Miltenyi Biotec). CD8+ T cells with >95% purity were subsequently cultured in T cell medium supplemented with IL-2 (36 IU/mL; but no gentamycin) for 1 day, after which expansion cycles started. K562ABC cells (kindly provided by prof. Bruce Levine, University of Pennsylvania, PA) were loaded with 10 μg/ml ROPN1 and/or ROPN1B peptide and incubated for 5 h at RT in serum-free medium, after which cells were washed and fixed with 0,1% paraformaldehyde. After washing, K562ABC cells were suspended at 0.1×10^6/mL and co-cultured with T cells in a 1:20 ratio. IL-2 (36 IU/mL) and IL-15 ([…]) were added at days 1 and 3 days after start of co-culture, and after 6 days, T cells were counted, suspended at 2×10^6/mL and rested for 1 day, after which the next cycle commenced (this schedule continued up to 4 or 5 cycles). Following 4 and 5 cycles, T cells were stained with pMHC multimers (HLA*0201/MLN, Immudex, Copenhagen, Denmark). pMHC-PE were pre-incubated at RT for 10 min followed by incubation with 7AAD, anti-CD3-FITC and anti-CD8-APC for 20 min. Cells were fixed with 1% paraformaldehyde and TCR expression was measured with flow cytometry and analyzed using FlowJoX software. FIG. 4A schematically depicts the procedure to enrich epitope-specific T cells, and obtainthe corresponding TCR genes.
Following enrichment, T cells were tested for ROPN1 and/or ROPN1B epitope-specific IFNY production. To this end, T2 cells (1×10^6/mL) were loaded with peptide (20 ng/mL) for 30 min, after which T cells (1×10^5) were cultured in a 1:1 ratio with T2 cells in a round bottom 96-wells plate for 18 h. Supernatant was collected and IFN-γ production was measured with an Enzyme-linked immunosorbent assay (ELISA, BioLegend) according to the manufacturer's protocol (FIG. 9A). T2 cells loaded with an irrelevant peptide were included as a negative control. T cell IFNg production was considered epitope-specific in case levels exceeded 200 pg/ml, and levels were minimally twice as high as for irrelevant peptide (see for full listing of criteria, FIG. 8). T cells that fulfilled these criteria were stained with peptide:MHC (pMHC) tetramers to determine the frequency of epitope-specific T cells. Empty Loadable HLA Tetramers (5 μL, Tetramer shop, Kongens Lyngby, Denmark) were incubated with 0.5 μL peptide (200 μM) for 30 min on ice. Complexes of pMHC were centrifuged (3300 g, 5 min) and incubated with 0.1×10^6 T cells for 15 min at 37° C. in the dark. Next, an antibody cocktail containing CD3-FITC (1:30, BD) and CD8-APC (1:300, eBiosciences) was added and incubated for an additional 30 min at 4° C. in the dark. Finally, T cells were washed twice and fixed with 1% paraformaldehyde (PFA), after which events were acquired with FACSCelesta (BD) and analyzed using FlowJoX software.

CD8+ T cells [2] = assay: Enrichment of epitope-specific CD8 T cells from healthy donors, epitope-specific IFNg production (ELISA); type: cell-based, human; conditions: positive co-cultures / co-cultures tested
Procedure: as §1
Enriched T cells were tested for ROPN1 and/or ROPN1B epitope-specific IFNY production. To this end, T2 cells (4×10^6/mL) were loaded with peptide (20 ng/mL) for 30 min. T cells (2×10^5) were cultured in a 1:1 ratio with T2 cells in a round bottom 96-wells plate, and the next day supernatant was collected and IFN-γ production was measured with an Enzyme-linked immunosorbent assay (ELISA, Invitrogen) according to manufacturer's protocol (FIG. 4B). T2 cells without peptide were included as a negative control; and staphylococcal enterotoxin B (0.1 μg, Sigma) was used as a positive control.
Enrichment of epitope-specific T cells was performed by co-culturing naïve T cells with CD11c-positive cells that were loaded with peptide. PBMCs were passed through a cell strainer (70 μm) and used for the isolation of naïve T cells and CD11c cells. To isolate CD11c-positive cells (typically dendritic cells, DC), PBMCs were stained for 10 mM at 4° C. with Fc block (10 μL/10^7 PBMCs, BD Pharmingen, Vianen, the Netherlands), after which cells were stained with CD11c-PE antibody (10 μL/10^7 PBMCs, BD Pharmingen) for 30 mM at 4° C., washed, and incubated with PE beads (10 μL/10^7 PBMCs, Miltenyi Biotech, Bergisch Gladbach, Germany) for another […] at 4° C. After washing, cells were dissolved in magnetic-activated cell sorting (MACS) buffer and passed through a MACS LS column (Miltenyi Biotec) to positively select CD11c cells. After selection, CD11c cells were irradiated with 30 Gy, and cultured overnight in a 24-wells plate (1×10^6/mL) in RPMI medium supplemented with 1% human serum (Sanquin), 1% antibiotics, […] L-glutamine, a DC maturation cocktail (a mixture of GM-CSF (10 ng/mL, ImmunoTools, Germany), IL-4 (10 ng/mL, ImmunoTools), LPS (100 ng/mL, Invitrogen, Goteborg, Sweden) and IFNY (10 ng/mL, Preprotech, London, United Kingdom)), as well as peptide (10 pg/mL). Naïve T cells were isolated with use of the Naïve T Cell isolation kit (Miltenyi Biotec) according to the manufacturer's protocol, and suspended in RPMI medium supplemented with 5% human serum (Sanquin), 1% antibiotics, […] L-glutamine and IL-7 (5 ng/mL, BD Pharmingen). The run-through of the naïve T cell selection was frozen down and used for re-stimulation of epitope-specific T cells. […]

HLA-A2 = molecular target: T1, HLA-A2 (Homo sapiens, UniProt P04439, D140Y/D185E/D98H/E176V/E277Q/G131W/G231S/I119V/I121R/I166T/I218V/L300P/L318F/N151K/N90K/P208A/P217A/Q86G/Q94H/R138H/R169H/T345S); assay: HLA-A2 stabilization assay using T2 cells; type: binding; conditions: for binding to HLA-A2: in words, peptides derived from immunopeptidome
T1 construct: The HLA-A2 stabilization assay was performed using T2 cells; endogenous in cells; host or cells: T2 cells (LCLxT lymphoblastoid hybrid cell line 0.1743CEM.T2)

[3] = molecular target: T2, HLA-A2 (HLA-A2:01) on T2 cells (human); assay: HLA-A2 stabilization assay on T2 cells, peptide titration (Example 2, repeated); column Affinity for HLA.A2.01 (M)
T2 construct: detected with anti-HLA-A2 mAb BB7.2

[4] = molecular target: T2, HLA-A2 (HLA-A2:01) on T2 cells; assay: HLA-A2 stabilization assay on T2 cells (anti-HLA-A2-PE, flow cytometry), single peptide concentration 25 ug/mL [panel E]
[5] = molecular target: T2, HLA-A2 (HLA-A2:01) on T2 cells; assay: HLA-A2 stabilization assay on T2 cells, peptide titration, flow cytometry with anti-HLA-A2 BB7.2; column Affinity for HLA A2:01 (M)
[6] = molecular target: T2, HLA-A2 (HLA-A2:01) on T2 cells; assay: HLA-A2 stabilization assay on T2 cells, peptide titration; amplitude relative to that of reference peptide YLE [panel D]
[7] = molecular target: T2, HLA-A2 (HLA-A2:01) on T2 cells; assay: HLA-A2 stabilization assay on T2 cells, peptide titration; amplitude = highest data point corrected for baseline [panel E]
[8] = molecular target: T2, HLA-A2 (HLA-A2:01) on T2 cells; assay: HLA-A2 stabilization assay on T2 cells (anti-HLA-A2-PE, flow cytometry), single peptide concentration [panel D]
[9] = Table 2 (Example 1), EC50 of peptide titration on T2 cells, read-out: Affinity for HLA A2:01
[10] = Table 4 (Examples 1 and 2), EC50 of peptide titration on T2 cells, read-out: Affinity for HLA.A2.01
[11] = Table 2 (Example 1), healthy donor T cells
[12] = Example 1, top-ranked epitopes, no legible unit, read-out: EC50 (HLA-A2 binding)

Molecule	pMHC staining % pMHC+ CD8+ in CD3+ (CD8+ T cells [1]) [%]	T cell responses observed (IFNg) against epitope (CD8+ T cells [2]; Table 4)	EC50 (HLA-A2; [9]) [µM]	EC50 (HLA-A2; [10]) [µM]	Minimum stability [4] [fold change over baseline]	Minimum stability [8] [fold change over baseline]	further results
CC[C@H](C)[C@H](NC(=O)[C@@H](NC(=O)[C@@H](N)CC(C)C)[C@@H](C)CC)C(=O)N[C@@H](CCCNC(=N)N)C(=O)N[C@@H](C)C(=O)N[C@@H](CCC(=O)O)C(=O)N[C@@H](CCC(=O)O)C(=O)N[C@@H](CC(C)C)C(=O)N[C@@H](C)C(=O)N[C@@H](CCC(N)=O)C(=O)N[C@@H](CCSC)C(=O)O (H-LIIRAEELAQM-OH; N-terminus and C-terminus assumed)	0.60	1/7 co-cultures	6.99	6.99			binding to HLA-A2 (HLA-A2): did bind to HLA-A2 with high affinity
CSCC[C@H](NC(=O)[C@@H](N)CCCCN)C(=O)N[C@@H](CC(C)C)C(=O)N[C@@H](CCCCN)C(=O)N[C@@H](CCC(=O)O)C(=O)N[C@@H](Cc1ccccc1)C(=O)N[C@@H](C)C(=O)N[C@@H](CCCCN)C(=O)N[C@@H](C)C(=O)O (H-KMLKEFAKA-OH; N-terminus and C-terminus assumed)		0/2 co-cultures	91.2	38.2			
CC[C@H](C)[C@H](NC(=O)[C@H](Cc1ccc(O)cc1)NC(=O)[C@@H](NC(=O)[C@H](Cc1ccc(O)cc1)NC(=O)[C@H](CC(C)C)NC(=O)[C@H](Cc1ccccc1)NC(=O)[C@H](CCC(N)=O)NC(=O)[C@@H](N)Cc1ccccc1)[C@@H](C)O)C(=O)N[C@@H](C)C(=O)O (H-FQFLYTYIA-OH; N-terminus and C-terminus assumed)	0.43	1/4 co-cultures	3.28	3.43			T cell responses observed (IFNg) against epitope (CD8+ T cells [2]; [11]): 1/4 co-cultures; EC50 (HLA-A2; [12]): 3.3 µM
CC(C)C[C@H](NC(=O)[C@H](C)NC(=O)[C@H](CO)NC(=O)[C@H](CS)NC(=O)[C@H](C)NC(=O)[C@H](CC(C)C)NC(=O)[C@H](C)NC(=O)[C@H](CC(C)C)NC(=O)[C@@H](N)Cc1ccccc1)C(=O)O [FLALACSAL] (H-FLALACSAL-OH; N-terminus and C-terminus assumed)	0.077	2/5 co-cultures	5.05	4.5			T cell responses observed (IFNg) against epitope (CD8+ T cells [2]; [11]): 2/5 co-cultures; EC50 (HLA-A2; Example 1, top-ranked epitopes, read-out: EC50 (HLA-A2 binding)): 5.1 µM
CC(C)C[C@H](NC(=O)[C@H](C)N)C(=O)N[C@@H](C)C(=O)N[C@@H](CS)C(=O)N[C@@H](CO)C(=O)N[C@@H](C)C(=O)N[C@@H](CC(C)C)C(=O)NCC(=O)N[C@H](C(=O)O)C(C)C (H-ALACSALGV-OH; N-terminus and C-terminus assumed)		0/4 co-cultures	3.16	2.84			
AELTPELLKI (Epitope 16) [eluted 10-mer, mapped in silico to HLA-B40:01]							binding to HLA-A2 (HLA-A2): did not bind to HLA-A2
CC[C@H](C)[C@H](NC(=O)[C@H](CCCCN)NC(=O)[C@H](CC(C)C)NC(=O)[C@@H](NC(=O)[C@@H](N)CCCCN)[C@@H](C)O)C(=O)N[C@H](C(=O)N[C@@H](CS)C(=O)N[C@@H](CCC(=O)O)C(=O)N[C@H](C(=O)O)C(C)C)C(C)C (H-KTLKIVCEV-OH; N-terminus and C-terminus assumed)	0.28	2/4 co-cultures	4.35	4.4			T cell responses observed (IFNg) against epitope (CD8+ T cells [2]; [11]): 2/4 co-cultures; EC50 (HLA-A2; [12]): 4.4 µM
FLALACSAL (Synthetic peptide) [Epitope 2 peptide FLALACSAL of ROPN1 and ROPN1B]					1.62	1.41	EC50 [3]: 4.5 µM; EC50 [5]: 5.05 µM; Amplitude [6]: 0.95 relative to YLE; Amplitude [7]: 3800 geometric mean normalized to baseline
HVSRMLNYI (ROPN1B, predicted)					1.09	1.09	
GLPRIPFST (ROPN1B, predicted)					1.06	1.06	
B1					1.27	1.38	EC50 [3]: 6.99 µM; EC50 [5]: 6.99 µM; Amplitude [6]: 0.918 relative to YLE; Amplitude [7]: 3170 geometric mean normalized to baseline
B2					1.13	1.4	EC50 [3]: 4.82 µM; EC50 [5]: 6.56 µM; Amplitude [6]: 0.935 relative to YLE; Amplitude [7]: 3450 geometric mean normalized to baseline
